Data as given in article PMC10185561, “RagD auto-activating mutations impair MiT/TFE activity in kidney tubulopathy and cardiomyopathy syndrome” (Nature Communications, 2023).

Target: T1, GST-RagD (Homo sapiens, UniProt Q9NQL2)
T1 construct: gene RRAGD; GST fusion from pET24d(+) in E. coli Rosetta (DE3), glutathione Sepharose; RagD alone without RagA/B; GST tag kept
Assay: UV crosslinking of alpha-32P-GTP, SDS-PAGE, autoradiography
Format: binding
Settings: labelled compound; 1 nM alpha-32P-GTP; 31.25 nM to 2 uM protein; 2 mM MgCl2; 50 mM HEPES pH 7.5; 100 mM potassium acetate; 4 h at 4 C

T1 sequence (Q9NQL2 whole entry, the tested form may be a part): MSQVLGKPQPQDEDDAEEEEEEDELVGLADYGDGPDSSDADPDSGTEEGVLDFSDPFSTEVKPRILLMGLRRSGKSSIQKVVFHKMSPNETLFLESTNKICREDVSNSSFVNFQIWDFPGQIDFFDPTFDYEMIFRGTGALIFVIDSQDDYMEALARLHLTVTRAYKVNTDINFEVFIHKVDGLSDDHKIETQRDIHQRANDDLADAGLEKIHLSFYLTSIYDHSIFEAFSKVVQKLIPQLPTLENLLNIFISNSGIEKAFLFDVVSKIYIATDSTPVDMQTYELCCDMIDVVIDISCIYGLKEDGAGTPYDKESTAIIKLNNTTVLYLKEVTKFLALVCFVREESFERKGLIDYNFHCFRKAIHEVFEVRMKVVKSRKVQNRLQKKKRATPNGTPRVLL

Nc1nc2c(ncn2[C@@H]2O[C@H](COP(=O)(O)OP(=O)(O)OP(=O)(O)O)[C@@H](O)[C@H]2O)c(=O)[nH]1 [GTP]
UV crosslinking of alpha-32P-GTP, SDS-PAGE, autoradiography: WT RagD bound GTP in a concentration-dependent manner
